Laboratory results taken from US7687644B2, “Adamantyl pyrrolidin-2-one derivatives as 11-beta hydroxysteroid dehydrogenase inhibitors” (Janssen Pharmaceutica NV, priority 2004, dated 2010).

What was measured:
11β-HSD2 [1] = target: T1, 11β-HSD2 (Homo sapiens, UniProt P80365); assay: Cellular assay, 11β-HSD2 activity in HepG2 cells; format: cell-based; parameters: endogenous in cells; host or cells: HepG2 (ATCC HB-8065); details: 4 hour pre-incubation, read-out: [C2] HSD2 cellular HepG2 Score
T1 sequence (P80365 1-405): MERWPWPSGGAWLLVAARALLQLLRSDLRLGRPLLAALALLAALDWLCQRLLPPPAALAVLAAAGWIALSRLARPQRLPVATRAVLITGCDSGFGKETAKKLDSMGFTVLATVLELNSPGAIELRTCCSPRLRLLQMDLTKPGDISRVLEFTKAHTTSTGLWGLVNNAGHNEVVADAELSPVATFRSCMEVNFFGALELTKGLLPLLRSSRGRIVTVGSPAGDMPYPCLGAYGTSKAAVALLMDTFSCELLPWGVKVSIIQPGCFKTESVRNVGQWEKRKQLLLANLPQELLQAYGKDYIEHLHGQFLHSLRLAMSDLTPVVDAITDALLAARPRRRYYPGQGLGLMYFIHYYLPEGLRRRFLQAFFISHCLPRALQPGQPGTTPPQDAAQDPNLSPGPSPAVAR
Protocol: The effects on 11β-HSD2 activity was studied in HepG2 and LCC-PK1-cells HepG2-cells (ATCC HB-8065) were seeded in 12 well plates at a density of 100,000′ cells/ml and grown at 37° C. in a humidified 5% CO2 atmosphere in MEM-Rega-3 medium supplemented with 10% heat inactivated foetal calf serum, 2 mM L-glutamine and sodium bicarbonate). Medium was refreshed twice a week.
Following a 4 hour pre-incubation with test compound, 0.5 μCi ^3H-cortisol or corticosterone, was added to the cultures. One hour later, the medium was extracted on Extrelut^3-columns with 15 ml diethyl ether and the extract was analysed by HPLC as described above.
As for the enzymatic assays, the compounds to be tested were taken from a stock is solution and tested at a final concentration ranging from −10^−5M to 3·10^−9M. From the thus obtained dose response curves, the pIC50 value was calculated and scored as follows; Score 1=pIC50 value<5, Score 2=pIC50 value in the range of 5 to 6, Score 3=pIC50 value>6. Some of the thus obtained results are summarized in the table below (in this table NT stands for Not Tested).

11β-HSD1 [2] = target: 11β-HSD1 (Homo sapiens, UniProt P28845); assay: Enzymatic assay, 11β-HSD1 reductase activity (conversion of cortisone into cortisol); format: biochemical; details: recombinant protein, 2 μM cortisone, 45 minutes at 37° C.; read-out: [C1] HSD1-prot Reduct Score
Sequence of 11β-HSD1 (Homo sapiens, UniProt P28845) (P28845 whole entry, species assumed): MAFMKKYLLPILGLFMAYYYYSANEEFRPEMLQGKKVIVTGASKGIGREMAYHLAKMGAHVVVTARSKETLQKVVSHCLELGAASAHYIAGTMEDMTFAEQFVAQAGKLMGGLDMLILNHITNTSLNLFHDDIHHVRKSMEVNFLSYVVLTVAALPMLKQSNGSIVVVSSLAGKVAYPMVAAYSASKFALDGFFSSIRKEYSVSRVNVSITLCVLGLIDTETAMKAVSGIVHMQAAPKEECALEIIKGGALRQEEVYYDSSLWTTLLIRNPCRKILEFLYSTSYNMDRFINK
Protocol: The effects of compounds on 11β-HSD1 dependent conversion of cortisone into cortisol (reductase activity) was studied in a reaction mixture containing 30 mM Tris-HCl buffer pH 7.2, 180 μM NADPH, 1 mM EDTA, 2 μM cortisone, 1 μl drug and/or solvent and 11 μg recombinant protein in a final volume of 100 μl.
(§1) All incubations were performed for 45 minutes at 37° C. in a water bath. The reaction was stopped by adding 100 μl acetonitrile containing 20 μg corticosterone as internal standard. After centrifugation, the product formation was analysed in the supernatant by HPLC on a Hypersyl BDS-C18 column using 0.05 mM ammonium acetate/methanol (50/50) as solvent. In all of the aforementioned assays, the drugs to be tested were taken from a stock solution and tested at a final concentration ranging from −10^−5M to 3·10^−9M. From the thus obtained dose response curves, the pIC50 value was calculated and scored as follows; Score 1=pIC50 value<5, Score 2=pIC50 value in the range of 5 to 6, Score 3=pIC50 value>6. Some of the thus obtained results are summarized in the table below (in this table NT stands for Not Tested).

11β-HSD1 [3] = target: T2, 11β-HSD1 (Mus musculus, UniProt P50172); assay: Cellular assay, 11β-HSD1 activity in differentiated 3T3-L1 cells; format: cell-based; details: 4 hour pre-incubation, read-out: [C2] HSD1 cellular 3T3-L1 Score
T2 construct: endogenous in cells; host or cells: 3T3-L1 (ATCC-CL-173), differentiated into adipocytes
T2 sequence (P50172 whole entry): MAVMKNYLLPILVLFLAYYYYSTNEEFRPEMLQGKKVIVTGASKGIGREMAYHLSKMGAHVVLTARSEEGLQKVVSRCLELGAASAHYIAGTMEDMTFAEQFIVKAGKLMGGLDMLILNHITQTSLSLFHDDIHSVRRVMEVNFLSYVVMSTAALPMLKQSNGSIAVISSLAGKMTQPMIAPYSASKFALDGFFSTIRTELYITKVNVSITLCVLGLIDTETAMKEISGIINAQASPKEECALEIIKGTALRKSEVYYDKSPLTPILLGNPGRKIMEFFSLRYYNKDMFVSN
Protocol: The effects on 11β-HSD1 activity was measured in differentiated 3T3-L1 cells and rat hepatocytes.
Medium was refreshed twice a week.
One hour later, the medium was extracted on Extrelut^3-columns with 15 ml diethyl ether and the extract was analysed by HPLC as described above.
As for the enzymatic assays, the compounds to be tested were taken from a stock is solution and tested at a final concentration ranging from −10^−5M to 3·10^−9M.

11β-HSD2 [4] = target: T1, 11β-HSD2; assay: Enzymatic assay, 11β-HSD2 dependent dehydrogenase activity; format: biochemical; details: recombinant protein, 100 nM cortisol, 45 minutes at 37° C.; read-out: [C1] HSD2-prot Dehydro Score
Protocol: The effects on the 11β-HSD2 dependent dehydrogenase activity was studied in a reaction mixture containing 0.1M sodium phosphate buffer pH 7.5, 300 μM NAD, 100 nM cortisol (of which 2 nM is 3H-radio labelled), 1 μl drug and/or solvent and 2.5 μg recombinant protein in a final volume of 100 μl.
as §1

SMILES | IC50 (11β-HSD1 [3]) [µM] | also measured
Cc1cccc(CC2CCN(C3C4CC5CC(C4)CC3C5)C2=O)c1F (centres unmarked) [Compound 1] | < 1 | melting point: 101 to 102 °C; IC50 (11β-HSD2 [1]): > 10 µM; IC50 (11β-HSD1 [2]): < 1 µM
CC1(Cc2ccc(OC(F)(F)F)cc2)CCN(C2C3CC4CC(C3)CC2C4)C1=O (centres unmarked) [Compound 17] | < 1 | –
COc1cc(CC2(C)CCN(C3C4CC5CC(C4)CC3C5)C2=O)cc(OC)c1 (centres unmarked) [Compound 20] | < 1 | –
Cc1cccc(C)c1CC1CCCN(C2C3CC4CC(C3)CC2C4)C1=O (centres unmarked) [Compound 22] | > 10 | –
Cc1cccc(CC2CCCN(C3C4CC5CC(C4)CC3C5)C2=O)c1F (centres unmarked) [Compound 26] | < 1 | –
COc1cccc(CC2(C)CCCN(C3C4CC5CC(C4)CC3C5)C2=O)c1 (centres unmarked) [Compound 27] | > 10 | –
N#Cc1cccc(CC2CCN(C3C4CC5CC(C4)CC3C5)C2=O)c1 (centres unmarked) [Compound 6] | < 1 | –
CC1(c2ccccc2)CCN(C2C3CC4CC(C3)CC2C4)C1=O (centres unmarked) [Compound 35] | < 1 | –
COc1cc(CC2(C)CCCN(C3C4CC5CC(C4)CC3C5)C2=O)cc(OC)c1 (centres unmarked) [Compound 28] | > 10 | –
CC1(Cc2ccccc2)CCN([C@@H]2CC[C@]3(O)CC4CC3[C@H]2C4)C1=O (some centres unmarked) [Compound 38] | < 1 | IC50 (11β-HSD2 [4]): > 10 µM
Cc1cccc(C)c1CC1(C)CCN(C2C3CC4CC(C3)CC2C4)C1=O (centres unmarked) [Compound 18] | > 10 | –
O=C1C(Cc2cc(C(F)(F)F)cc(C(F)(F)F)c2)CCN1C1C2CC3CC(C2)CC1C3 (centres unmarked) [Compound 9] | > 10 | –
O=C1C(Cc2cccc(C(F)(F)F)c2F)CCN1C1C2CC3CC(C2)CC1C3 (centres unmarked) [Compound 7] | < 1 | –
Cc1cccc(CC2CCN([C@@H]3CC[C@]4(O)CC5CC4[C@H]3C5)C2=O)c1F (some centres unmarked) [Compound 39] | < 1 | IC50 (11β-HSD2 [4]): > 10 µM
Cc1ccc(CC2CCN(C3C4CC5CC(C4)CC3C5)C2=O)cc1 (centres unmarked) [Compound 16] | < 1 | IC50 (11β-HSD2 [1]): > 10 µM; IC50 (11β-HSD1 [2]): < 1 µM
COc1cccc(CC2(Cc3cccc(OC)c3)CCCN(C3C4CC5CC(C4)CC3C5)C2=O)c1 (centres unmarked) [Compound 31] | > 10 | –
COc1cc(CC2CCCN(C3C4CC5CC(C4)CC3C5)C2=O)cc(OC)c1 (centres unmarked) [Compound 25] | < 1 | –
O=C1C(Cc2cc(F)cc(C(F)(F)F)c2)CCN1C1C2CC3CC(C2)CC1C3 (centres unmarked) [Compound 10] | 1 to 10 | –
Cc1cccc(CC2(C)CCN([C@@H]3CC[C@]4(O)CC5CC4[C@H]3C5)C2=O)c1F (some centres unmarked) [Compound 40] | < 1 | IC50 (11β-HSD2 [1]): 1 to 10 µM; IC50 (11β-HSD2 [4]): > 10 µM
COc1cccc(CC2CCCN(C3C4CC5CC(C4)CC3C5)C2=O)c1 (centres unmarked) [Compound 21] | < 1 | –
